Here are results for 20 compounds from patent publication US11339171B2, “MDM2 inhibitors” (Gan & Lee Pharmaceuticals, priority 2017, dated 2022).

The target in one assay is T1, MDM2 (Homo sapiens, UniProt Q00987).
T1 construct: made in house
Kind of assay: Inhibition test of MDM2-P53 (GST-MDM2, Biotin-P53, Anti-GST-Tb, SA-XL665). The class given is binding. The essentials:
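Binding was measured by TR-FRET with GST-MDM2 at 4 nM final in PBS with 0.1% BSA, 5 mM DTT and 1 mM AEBSF. Compounds were tested as twelve-point 5-fold dilutions and incubated with the detection mix for 90 min at 25 °C with shaking before plate-reader reading and curve fitting.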

Assay [1] relates to human osteosarcoma cell line SJSA-1. Kind of assay: Inhibition of proliferation of human osteosarcoma cell line SJSA-1 (DAPI staining, In Cell Analyzer). As to conditions: Homo sapiens, SJSA-1, 72 h, read-out: IC50 (nM), inhibitory activity on proliferation of human osteosarcoma cell line SJSA-1, SJSA-1, incubated 72 h.

T1 sequence (Q00987 whole entry): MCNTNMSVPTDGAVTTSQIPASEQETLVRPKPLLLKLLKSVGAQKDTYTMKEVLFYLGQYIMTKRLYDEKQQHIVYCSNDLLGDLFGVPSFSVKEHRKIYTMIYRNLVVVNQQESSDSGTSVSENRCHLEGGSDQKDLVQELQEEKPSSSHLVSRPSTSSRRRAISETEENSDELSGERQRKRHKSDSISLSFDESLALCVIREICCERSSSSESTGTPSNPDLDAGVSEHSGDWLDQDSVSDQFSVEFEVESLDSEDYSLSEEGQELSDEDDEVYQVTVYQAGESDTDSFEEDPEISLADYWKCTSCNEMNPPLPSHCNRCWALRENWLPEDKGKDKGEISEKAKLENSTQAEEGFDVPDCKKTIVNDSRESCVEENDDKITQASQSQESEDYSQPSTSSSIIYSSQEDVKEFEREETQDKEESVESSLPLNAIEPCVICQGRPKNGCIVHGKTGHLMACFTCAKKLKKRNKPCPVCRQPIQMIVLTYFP

As for `COc1cc(C(F)(F)F)ncc1-c1nc2c(n1C(C)C)[C@@]1(C(=O)Nc3cc(Cl)ccc31)N(c1cccc(Cl)c1)C2=O` [Example S-142, (S)-6-chloro-5′-(3-chlorophenyl)-3′-isopropyl-2′-(4-methoxy-6-(trifluoromethyl)pyridin-3-yl)-3′H-spiro[dihydroindole-3,4′-pyrrolo[3,4-d]imidazole]-2,6′(5′H)-dione], the IC50 on MDM2 was found to be 1.45 nM; in assay [1], 138 nM.

Consider `COc1cc(C2CC2)ncc1-c1nc2c(n1C(C)C)[C@@]1(C(=O)Nc3cc(Cl)ccc31)N(c1cc(Cl)cnc1C)C2=O` [Example S-143, (S)-6-chloro-5′-(5-chloro-2-methylpyridin-3-yl)-2′-(6-cyclopropyl-4-methoxypyridin-3-yl)-3′-isopropyl-3′H-spiro[dihydroindole-3,4′-pyrrolo[3,4-d]imidazole]-2,6′(5′H)-dione], for which the IC50 came to 1.1 nM on MDM2 and 24.9 nM in assay [1].

Regarding `COc1cc(C(F)(F)F)ccc1-c1nc2c(n1C(C)C)[C@@]1(C(=O)Nc3cc(Cl)ccc31)N(c1cc(Cl)cnc1C)C2=O` [Example S-144, (S)-6-chloro-5′-(5-chloro-2-methylpyridin-3-yl)-3′-isopropyl-2′-(2-methoxy-4-(trifluoromethyl)phenyl)-3′H-spiro[dihydroindole-3,4′-pyrrolo[3,4-d]imidazole]-2,6′(5′H)-dione], the IC50 came out at 3.84 nM against MDM2 and 101 nM in assay [1].

Turning to `COc1cc(C2CC2)ccc1-c1nc2c(n1C(C)C)[C@@]1(C(=O)Nc3cc(Cl)ccc31)N(c1cc(Cl)cnc1C)C2=O` [Example S-145, (S)-6-chloro-5′-(5-chloro-2-methylpyridin-3-yl)-2′-(4-cyclopropyl-2-methoxyphenyl)-3′-isopropyl-3′H-spiro[dihydroindole-3,4′-pyrrolo[3,4-d]imidazole]-2,6′(5′H)-dione], the IC50 worked out at 2.05 nM against MDM2 and 28.2 nM in assay [1].

In the case of `CCOc1ccc(-c2nc3c(n2C(C)C)[C@@]2(C(=O)Nc4cc(Cl)ccc42)N(c2cc(Cl)ccc2C)C3=O)c(OC)n1` [Example S-146, (S)-6-chloro-5′-(5-chloro-2-methylphenyl)-2′-(6-ethoxy-2-methoxypyridin-3-yl)-3′-isopropyl-3′H-spiro[dihydroindole-3,4′-pyrrolo[3,4-d]imidazole]-2,6′(5′H)-dione], the IC50 amounted to 5.44 nM against MDM2 and 67.8 nM in assay [1].

As to `COc1nc(OCC(F)F)ncc1-c1nc2c(n1C(C)C)[C@@]1(C(=O)Nc3cc(Cl)ccc31)N(c1cc(Cl)ccc1C)C2=O` [Example S-147, (S)-6-chloro-5′-(5-chloro-2-methylphenyl)-2′-(2-(2,2-difluoroethoxy)-4-methoxypyrimidin-5-yl)-3′-isopropyl-3′H-spiro[dihydroindole-3,4′-pyrrolo[3,4-d]imidazole]-2,6′(5′H)-dione], the IC50 against MDM2 was 5.89 nM; in assay [1] it was 271 nM.

On to `COc1cc(OCCO)ccc1-c1nc2c(n1C(C)C)[C@@]1(C(=O)Nc3cc(Cl)ccc31)N(c1cc(Cl)ccc1C)C2=O` [Example S-148, (S)-6-chloro-5′-(5-chloro-2-methylphenyl)-2′-(4-(2-hydroxyethoxy)-2-methoxyphenyl)-3′-isopropyl-3′H-spiro[dihydroindole-3,4′-pyrrolo[3,4-d]imidazole]-2,6′(5′H)-dione], for which the IC50 was determined as 1.58 nM against MDM2 and 71.8 nM in assay [1].

Turning to `COc1nc(C(C)C)ccc1-c1nc2c(n1C(C)C)[C@@]1(C(=O)Nc3cc(Cl)ccc31)N(c1cc(Cl)ccc1C)C2=O` [Example S-149, (S)-6-chloro-5′-(5-chloro-2-methylphenyl)-3′-isopropyl-2′-(6-isopropyl-2-methoxypyridin-3-yl)-3′H-spiro[dihydroindole-3,4′-pyrrolo[3,4-d]imidazole]-2,6′(5′H)-dione], the figures for the IC50 (on MDM2; in assay [1]) were 18.5 nM and 153 nM, respectively.

Turning to `COc1cc(OC(F)F)ncc1-c1nc2c(n1C(C)C)[C@@]1(C(=O)Nc3cc(Cl)ccc31)N(c1cc(Cl)ccc1C)C2=O` [Example S-150, (S)-6-chloro-5′-(5-chloro-2-methylphenyl)-2′-(6-(difluoromethoxy)-4-methoxypyridin-3-yl)-3′-isopropyl-3′H-spiro[dihydroindole-3,4′-pyrrolo[3,4-d]imidazole]-2,6′(5′H)-dione], the IC50 on MDM2 is 1.93 nM; in assay [1], 80.5 nM.

Take `COc1cc(C(F)(F)F)ncc1-c1nc2c(n1C(C)C)[C@@]1(C(=O)Nc3cc(Cl)ccc31)N(c1cc(Cl)cnc1C)C2=O` [Example S-152, (S)-6-chloro-5′-(5-chloro-2-methylpyridin-3-yl)-3′-isopropyl-2′-(4-methoxy-6-(trifluoromethyl)pyridine-3-yl)-3′H-spiro[dihydroindole-3,4′-pyrrolo[3,4-d]imidazole]-2,6′(5′H)-dione]: the IC50 was determined as 0.78 nM against MDM2 and 79.8 nM in assay [1].

In the case of `COc1cc(OCC(F)F)ncc1-c1nc2c(n1C(C)C)[C@@]1(C(=O)Nc3cc(Cl)ccc31)N(c1cc(Cl)ccc1C)C2=O` [Example S-153, (S)-6-chloro-5′-(5-chloro-2-methylphenyl)-2′-(6-(2,2-difluoroethoxy)-4-methoxypyridin-3-yl)-3′-isopropyl-3′H-spiro[dihydroindole-3,4′-pyrrolo[3,4-d]imidazole]-2,6′(5′H)-dione], the IC50 against MDM2 turned out to be 0.49 nM; in assay [1], 22 nM.

On to `COc1cc(C)ncc1-c1nc2c(n1C(C)C)[C@@]1(C(=O)Nc3cc(Cl)ccc31)N(c1cc(Cl)ccc1C)C2=O` [Example S-154, (S)-6-chloro-5′-(5-chloro-2-methylphenyl)-3′-isopropyl-2′-(4-methoxy-6-methylpyridin-3-yl)-3′H-spiro[dihydroindole-3,4′-pyrrolo[3,4-d]imidazole]-2,6′(5′H)-dione], for which the IC50 on MDM2 is 0.9 nM; in assay [1], 22 nM.

With `COc1cc(N(C)C)ncc1-c1nc2c(n1C(C)C)[C@@]1(C(=O)Nc3cc(Cl)ccc31)N(c1cc(Cl)cnc1C)C2=O` [Example S-155, (S)-6-chloro-5′-(5-chloro-2-methylpyridin-3-yl)-2′-(6-(dimethylamino)-4-methoxypyridin-3-yl)-3′-isopropyl-3′H-spiro[dihydroindole-3,4′-pyrrolo[3,4-d]imidazole]-2,6′(5′H)-dione], the IC50 against MDM2 turned out to be 0.95 nM; in assay [1] it was 14.6 nM.

Regarding `COc1nc(N(C)C)ccc1-c1nc2c(n1C(C)C)[C@@]1(C(=O)Nc3cc(Cl)ccc31)N(c1cc(Cl)ccc1C)C2=O` [Example S-157, (S)-6-chloro-5′-(5-chloro-2-methylphenyl)-2′-(6-(dimethylamino)-2-methoxypyridin-3-yl)-3′-isopropyl-3′H-spiro[dihydroindole-3,4′-pyrrolo[3,4-d]imidazole]-2,6′(5′H)-dione], the IC50 against MDM2 came to 3.81 nM; in assay [1] it was 16.7 nM.

Consider `COc1ncc(-c2nc3c(n2C(C)C)[C@@]2(C(=O)Nc4cc(Cl)ccc42)N(c2ccc(C#N)c(Cl)c2)C3=O)c(OC)n1` [Example S-158, (S)-2-chloro-4-(6-chloro-2′-(2,4-dimethoxypyrimidin-5-yl)-3′-isopropyl-2,6′-dioxo-3′,6′-dihydro-5′H-spiro[dihydroindole-3,4′-pyrrolo[3,4-d]imidazole]-5′-yl)benzonitrile], for which the IC50 at MDM2 is 4.07 nM; in assay [1], 550 nM.

Regarding `COc1ncc(-c2nc3c(n2C(C)C)[C@@]2(C(=O)Nc4cc(Cl)ccc42)N(c2ccc(OC(F)(F)F)c(Cl)c2)C3=O)c(OC)n1` [Example S-161, (S)-6-chloro-5′-(3-chloro-4-(trifluoromethoxy)phenyl)-2′-(2,4-dimethoxypyrimidin-5-yl)-3′-isopropyl-3′H-spiro[dihydroindole-3,4′-pyrrolo[3,4-d]imidazole]-2,6′(5′H)-dione], the IC50 against MDM2 worked out at 8.09 nM; in assay [1] it was 557 nM.

On to `COc1cc(N(C)CCO)ccc1-c1nc2c(n1C(C)C)[C@@]1(C(=O)Nc3cc(Cl)ccc31)N(c1cc(Cl)ccc1C)C2=O` [Example S-162, (S)-6-chloro-5′-(5-chloro-2-methylphenyl)-2′-(4-((2-hydroxyethyl)(methyl)amino)-2-methoxyphenyl)-3′-isopropyl-3′H-spiro[dihydroindole-3,4′-pyrrolo[3,4-d]imidazole]-2,6′(5′H)-dione], for which the IC50 against MDM2 was determined as 2.07 nM; in assay [1] it was 14.9 nM.

For the compound `COc1cc(OCCF)ncc1-c1nc2c(n1C(C)C)[C@@]1(C(=O)Nc3cc(Cl)ccc31)N(c1cc(Cl)ccc1C)C2=O` [Example S-163, (S)-6-chloro-5′-(5-chloro-2-methylphenyl)-2′-(6-(2-fluoroethoxy)-4-methoxypyridin-3-yl)-3′-isopropyl-3′H-spiro[dihydroindole-3,4′-pyrrolo[3,4-d]imidazole]-2,6′(5′H)-dione], the IC50 is 1.36 nM against MDM2 and 126 nM in assay [1].

Regarding `COc1cc(C(C)C)ncc1-c1nc2c(n1C(C)C)[C@@]1(C(=O)Nc3cc(Cl)ccc31)N(c1cc(Cl)ccc1C)C2=O` [Example S-164, (S)-6-chloro-5′-(5-chloro-2-methylphenyl)-3′-isopropyl-2′-(6-isopropyl-4-methoxypyridin-3-yl)-3′H-spiro[dihydroindole-3,4′-pyrrolo[3,4-d]imidazole]-2,6′(5′H)-dione], the IC50 amounted to 0.94 nM against MDM2 and 16.8 nM in assay [1].

With `COc1cc(C(C)C)ncc1-c1nc2c(n1C(C)C)[C@@]1(C(=O)Nc3cc(Cl)ccc31)N(c1cc(Cl)cnc1C)C2=O` [Example S-166, (S)-6-chloro-5′-(5-chloro-2-methylpyridin-3-yl)-3′-isopropyl-2′-(6-isopropyl-4-methoxypyridin-3-yl)-3′H-spiro[dihydroindole-3,4′-pyrrolo[3,4-d]imidazole]-2,6′(5′H)-dione], the IC50 was determined as 1.88 nM at MDM2 and 38.1 nM in assay [1].
